Laboratory results: patent US10344037B2, “Use of the FL-one hundred eighteen core chemical structure platform to generate FL-one hundred eighteen derivatives for treatment of human disease” (priority 2014, dated 2019)
Where two headings read alike, the source gives them in different places.

Assays:
RC1 (DU145-RC1) cells [1] = settings: adopted from Urasaki Y et al.; cited from earlier work
RC1 (DU145-RC1) cells [2] = assay: Cell growth inhibition, DU145 sub-line with Top1 mutation; format: cell-based, human
From the text: (§1) Each dot is the mean±SD derived from 3 independent assays.
(§2) Irinotecan and topotecan are the only two analogs derived from direct modification of camptothecin (CPT) that are approved by the FDA for cancer treatment in clinical practice. […] In this regard, we obtain one DU145 parental prostate cancer cell line and two DU145-derived sub-lines with Top1 mutations (DU145-RC0.1, DU145-RC1).

[3] = system: RC0.1 (DU145-RC0.1) cells; assay: as above; format: cell-based, human
From the text: as §1, §2

[4] = system: DU145 prostate cancer cells; assay: Cell growth inhibition, cell counting after 72 h; format: cell-based, human
From the text: as §1, §2

[5] = system: RC0.1 (DU145-RC0.1) cells; settings: adopted from Urasaki Y et al.; cited from earlier work
[6] = system: DU145 prostate cancer cells; settings: DU-145; adopted from Urasaki Y et al.; cited from earlier work
HCT116-C4 cells = assay: cells; format: cell-based, human; settings: for RP: IC50 of topotecan divided by IC50 of the drug
Procedure: Cancer cell viability and growth are determined by MTT assay. […] MTT is used as a colorimetric substrate for measuring cell viability and growth. When cell growth is inhibited, there is an alteration of cellular redox activity, and thus rendering cells unable to reduce the MTT dye. Cells are seeded in 96 well plates overnight and then treated with or without a compound/drug in the presence or absence of an protein molecule inhibitor (e.g. ABCG2 inhibitor ko143) for 48-72 hours, MTT is added to a final concentration 0.5 mg/ml. Cells are continuously incubated in a 5% CO2 incubator at 37° C. for 4 h with MTT and then lysed with a cell lysis buffer (20% SDS, 50% N,N-dimethylformamide, pH 4.7), 100 μl per well, for 4 h in the incubator. Subsequently, cell absorbance in each well is measured at 570 nm with an Ultra Microplate Reader (Bio-Tek Instruments). Results are reported as the mean±SD from 3-5 independent assays at each point. Alternatively, for FIG. 16, FIG. 17 and FIG. 19, cells are plated at a density of 300,000 cells/well in 6-well plates; cells are allowed to attach on the plate overnight. […] After 72 hours, media is removed and cells are harvested using 0.5 ml of 0.25% Trypsin-EDTA. Cells are counted and viability is analyzed on a Vi-CELL XR Cell Viability Analyzer (Beckman Coulter).

HCT116-G7 cells = assay: cells; format: cell-based, human; settings: for RP: IC50 of topotecan divided by IC50 of the drug
Procedure: (§3) Cancer cell viability and growth are determined by MTT assay. […] MTT is used as a colorimetric substrate for measuring cell viability and growth. When cell growth is inhibited, there is an alteration of cellular redox activity, and thus rendering cells unable to reduce the MTT dye. Cells are seeded in 96 well plates overnight and then treated with or without a compound/drug in the presence or absence of an protein molecule inhibitor (e.g. ABCG2 inhibitor ko143) for 48-72 hours, MTT is added to a final concentration 0.5 mg/ml. Cells are continuously incubated in a 5% CO2 incubator at 37° C. for 4 h with MTT and then lysed with a cell lysis buffer (20% SDS, 50% N,N-dimethylformamide, pH 4.7), 100 μl per well, for 4 h in the incubator. Subsequently, cell absorbance in each well is measured at 570 nm with an Ultra Microplate Reader (Bio-Tek Instruments). Results are reported as the mean±SD from 3-5 independent assays at each point. […] After 72 hours, media is removed and cells are harvested using 0.5 ml of 0.25% Trypsin-EDTA. Cells are counted and viability is analyzed on a Vi-CELL XR Cell Viability Analyzer (Beckman Coulter).

HCT116-C8 cells = assay: cells; format: cell-based, human; settings: for RP: IC50 of topotecan divided by IC50 of the drug
Procedure: as §3

HCT116-NS6 cells = assay: cells; format: cell-based, human; settings: for RP: IC50 of topotecan divided by IC50 of the drug
Procedure: as §3

ABCG2 in HCT116-A2 cells [7] = assay: Growth inhibition after ABCG2 shRNA silencing; format: cell-based, human; settings: 72 hours
Procedure: Actin is internal control. B and C. […] Cells at sub-confluence are infected with lentiviral particles containing nonsense shRNA (ns), or AGCG2-specific shRNA (sh1, sh2) to silence ABCG2 expression in the cells. […] Viability for each dose was determined using a ViCELL XR cell viability analyzer and normalized to that of DMSO control. Error bars=SEM, n=3 independent experiments. Data are plotted graphically and EC50 values are calculated using GraphPad Prism 6.0.

HCT116-A2 cells = assay: cells; format: cell-based, human; settings: for RP: IC50 of topotecan divided by IC50 of the drug
Procedure: as §3

ABCG2 in HCT116-A2 cells [8] = format: cell-based, human
Procedure: Cell numbers are then counted at each drug concentration used. […] Cell numbers at each dot is the mean±SD derived from 3 independent assays. Data are plotted graphically and EC50 values are calculated using GraphPad Prism 6.0.
ABCG2 positive HCT116-derived colon cancer cells (HCT116-A2) grown at sub-confluence are treated with a series of concentrations of topotecan in triplicate for 72 hours in the presence or absence of Ko143 at 1 μM concentrations as shown. Cell numbers are then counted at each topotecan concentration used. […] Cell numbers at each dot is the mean±SD derived from 3 independent assays. Data are plotted graphically and EC50 values and R-values are calculated using GraphPad Prism 6.0.
Clinically, development of resistance to irinotecan and topotecan occurs commonly during treatment, often involving the upregulation of ABCG2. By increasing the rate of drug export, ABCG2 decreases the amount of SN-38, irinotecan or topotecan that accumulates intracellularly, thereby protecting cancer cells from the cytotoxic effects of these chemotherapeutic drugs.

[9] = system: HCT116 colon cancer cells; assay: cells; format: cell-based, human; settings: for RP: IC50 of topotecan divided by IC50 of the drug
Procedure: as §3

in vivo = settings: SCID, mouse, in vivo, ip
Procedure: Individual tumor curves derived from individual mice are shown. A. Mice with FaDu head-&-neck tumor xenografts were first treated with irinotecan at its maximum tolerated dose (MTD, 100 mg/kg, IP) weekly for 4-5 times (black arrow). […] B. Mice with FaDu tumor xenografts were first treated with topotecan at its MTD (4 mg/kg, IP) via daily×5 schedules for 4 cycles (each black arrow is one cycle). […] C. Mice with SW620 CRC xenografts were first treated with irinotecan at its MTD (IP, weekly×4, black arrow). […] D. Mice with SW620 xenograft tumors were first treated with topotecan at its MTD.

ABCG2 in HEK293 cells [10] = assay: Intracellular drug concentration by flow cytometry; format: cell-based, human
Procedure: Cells are then incubated for 3 h in 37 C and 5% CO2, with manual agitation every 30 min. After incubation, cells are pelleted and supernatant is removed. Cell pellets are washed twice with ice-cold PBS, and then suspended in 300 uL ice-cold PBS, and placed on ice until analysis. Cells are analyzed on a LSR II flow cytometer (BD Biosciences, San Jose Calif.) with a 355 nm laser and a 540 nm band-pass filter to detect emission. Median fluorescence intensity (MFI) of each drug+/−Ko143 is compared.

ABCG2 in HEK293 cells [11] = system: ABCG2 in HEK293 cells
HCT-8 cells = assay: Colony formation after 2 h or 6 h drug treatment; format: cell-based, human
Procedure: Subconfluent SW620, HCT-8, and HCT-116 cells were lysed and analyzed for the expression of MDR1 and ABCG2 using western blots (WB). Actin is the internal control. […] Cell growth/viability was then analyzed by MTT assays. Each time point in the individual curve is the mean±SD from 3 to 5 independent assays. […] Drugs were then washed out and cells were allowed to grow in new medium without drugs for 2 weeks. Cell colonies were stained with crystal violet solution; images were digitally taken. Triplicate results are shown.
Cell growth is then measured and the data are plotted as percentage of growth inhibition (no drug treatment was set at 0%). […] C. […] Representative cancer cell images were taken with a digital camera under phase-contrast microscope.

survivin = assay: Western blot for survivin expression in FaDu cells; format: cell-based, human; settings: 24 hours
cancer cells = assay: Cell growth and viability, MTT; format: cell-based, human; settings: 72 hours
Procedure: Actin is an internal control for equal protein loading. […] Subconfluent cancer cells as shown are treated with a series of concentrations of crolibulin as shown (0-100 μM) for 72 hours. Cell growth and viability are determined via MTT assay. Each curve is the mean±SD from 4 independent assays.
Crolibulin is an anticancer drug that targets endothelial cells of the cancer vasculature system. Therefore, crolibulin is considered as a vascular disrupt agent (VDA).

[12] = system: human umbilical vein endothelial cells (HUVECS); assay: Cell growth and viability, MTT; format: cell-based; settings: 72 hours
[13] = DU-145, IC50 of topotecan divided by IC50 of the drug

SMILES | IC50 (RC1 (DU145-RC1) cells [1]) [nM] | RP (relative potency) [4, 13] | IC50 [5] [nM] | IC50 [6] [nM] | RP (HCT116-C4 cells) | RP (HCT116-G7 cells) | RP (HCT116-C8 cells) | RP (HCT116-NS6 cells) | RP (relative potency) (RC1 (DU145-RC1) cells [2]) | RP (relative potency) [3] | RP (HCT116-A2 cells) | RP [9] | other results
CC[C@@]1(O)C(=O)OCc2c1cc1n(c2=O)Cc2cc3ccccc3nc2-1 [CPT, camptothecin] | 21700 | 3.17 | 63300 | 60 | – | – | – | – | – | – | – | – | RP (relative potency) (RC1 (DU145-RC1) cells [2]; RC1, IC50 of topotecan divided by IC50 of the drug): 2.69; RP (relative potency) ([3]; RC0.1, IC50 of topotecan divided by IC50 of the drug): 0.97
CCc1c2c(nc3ccc(O)cc13)-c1cc3c(c(=O)n1C2)COC(=O)[C@]3(O)CC [SN-38] | 4430 | – | 11700 | 40 | 3.337 | 4.048 | 44.69 | 5.055 | 13.2 | 5.24 | 2.499 | 2.474 | IC50 (HCT116-C4 cells): 25.7 nM; IC50 (HCT116-G7 cells): 4.76 nM; IC50 (HCT116-C8 cells): 8.47 nM; IC50 (HCT116-NS6 cells): 1.11 nM; RP (relative potency) [4]: 4.75; effect of silencing of ABCG2 on cell growth inhibition (ABCG2 in HCT116-A2 cells [7]): significantly sensitizes SN-38 to inhibit cell growth; IC50 (HCT116-A2 cells): 43.4 nM; effect of ABCG2 inhibitor Ko143 on potency (ABCG2 in HCT116-A2 cells [8]; HCT116-A2 cells, 72 hours, Ko143 1 μM): Ko143 restores potency to SN-38; IC50 [9]: 0.192 nM
CC[C@@]1(O)C(=O)OCc2c1cc1n(c2=O)Cc2cc3c(CN(C)C)c(O)ccc3nc2-1 [Topotecan, topotecan] | 58300 | 1 | 61200 | 190 | 1 | 1 | 1 | 1 | 1 | 1 | 1 | 1 | IC50 (HCT116-C4 cells; Homo sapiens): 85.8 nM; MTD (in vivo): 4 mg/kg; effect of ABCG2 overexpression on intracellular concentration (ABCG2 in HEK293 cells [10]): decreases intracellular concentration; IC50 (HCT116-G7 cells; Homo sapiens): 19.3 nM; IC50 (HCT116-C8 cells; Homo sapiens): 379 nM; IC50 (HCT116-NS6 cells; Homo sapiens): 5.64 nM; effect of ABCG2 overexpression on IC50 for inhibition of cell growth (ABCG2 in HEK293 cells [11]): significantly increases IC50; colony formation inhibition, 6 hours versus 2 hours of treatment (HCT-8 cells): significantly better colony formation inhibition; IC50 (HCT116-A2 cells; Homo sapiens): 108 nM; effect of ABCG2 inhibitor Ko143 on potency (ABCG2 in HCT116-A2 cells [8]): ABCG2 is also a topotecan resistance factor; IC50 ([9]; Homo sapiens, HCT-116): 0.747 nM
COc1cc([C@H]2C(C#N)=C(N)Oc3c2ccc(N)c3N)cc(Br)c1OC [crolibulin, reference compound] | – | – | – | – | – | – | – | – | – | – | – | – | survivin expression (survivin): strongly induce survivin expression; sensitivity of cancer cells (cancer cells): resistant to crolibulin inhibition; sensitivity of HUVEC cells [12]: sensitive to crolibulin inhibition
